system: cholesterol absorption; assay: Cholesterol absorption test: uptake of 14C-cholesterol by the liver; format: in vivo, mouse; details: dose at which the uptake of 14C-cholesterol by the liver is halved (50%), based on a control group; test substance given immediately prior to peroral test meal; liver after 24 h
Source text: Effect on Cholesterol Absorption +^3H-Taurocholic Acid Excretion Using Fecal Excrement of Mice, Rats or Hamsters
NMRI mice, Wistar rats, or Golden Syrian hamsters (in groups of n=4-6) are kept in metabolic cages, where they are fed with a standard diet (Altromin, Lage (Lippe)). The afternoon prior to the administration of the radioactive tracers (^14C-cholesterol), the feed is removed and the animals are adapted to grates.
Additionally, the animals are labeled s.c. with ^3H-TCA (taurocholic acid) (for example 1 μCi/mouse up to 5 μCi/rat) 24 hours prior to the peroral administration of the test meal (^14C-cholesterol in Intralipid® 20, Pharmacia-Upjohn).
Cholesterol absorption test: 0.25 ml/mouse Intralipid® (Pharmacia-Upjohn) ((spiked with 0.25 μCi of ^14C-cholesterol in 0.1 mg of cholesterol) is administered perorally by gavage.
Test substances are prepared separately in 0.5% methylcellulose (Sigma)/5% Solutol (BASF, Ludwigshafen) or a suitable vehicle.
The administration volume of the test substance is 0.5 ml/mouse. The test substance is administered immediately prior to the test meal (Intralipid labeled with ^14C-cholesterol) (cholesterol absorption test).
The feces are collected over a period of 24 h: fecal elimination of ^14C-cholesterol and ^3H-taurocholic acid (TCA) is determined after 24 hours.
The livers are removed and homogenized, and aliquots are incinerated in an oximate (Model 307, Packard) to determine the amount of ^14C-cholesterol which had been taken up/absorbed.
The amount of ^14C-cholesterol taken up by the liver is based on the administered dose. The ED50 values are interpolated from a dose-effect curve as the dose at which the uptake of ^14C-cholesterol by the liver is halved (50%), based on a control group.

Compound | ED50 (liver)
O=C(NCc1ccc(C2C(CCC(O)c3ccc(F)cc3)C(=O)N2c2ccc(F)cc2)cc1)C(O)C(O)C(O)C(O)CO (stereo not drawn) [Example II] | 0.1 mg/mouse
CN(CCOCCOCCOc1ccc(C2C(CCC(O)c3ccc(F)cc3)C(=O)N2c2ccc(F)cc2)cc1)CC(O)C(O)C(O)C(O)CO (stereo not drawn) [Example XXX, 1-(4-Fluorophenyl)-3-[3-(4-fluorophenyl)-3-hydroxypropyl]-4-{4-[2-(2-{2-[methyl-(2,3,4,5,6-pentahydroxyhexyl)amino]ethoxy}ethoxy)ethoxy]phenyl}azetidin-2-one] | 0.1 mg/mouse
COc1ccc(C2C(CCC(O)c3ccc(F)cc3)C(=O)N2c2ccc(CNC(C)=O)cc2)cc1 (stereo not drawn) [Example XX, N-{4-[3-[3-(4-Fluorophenyl)-3-hydroxypropyl]-2-(4-methoxyphenyl)-4-oxoazetidin-1-yl]benzyl}acetamide] | 0.03 mg/mouse
O=C(COCCOCC(=O)NCc1ccc(C2C(CCC(O)c3ccc(F)cc3)C(=O)N2c2ccc(F)cc2)cc1)NCCOCCOCC(=O)C(O)C(O)C(O)C(O)CO (stereo not drawn) [XIII, N-(4-{1-(4-Fluorophenyl)-3-[3-(4-fluorophenyl)-3-hydroxypropyl]-4-oxoazetidin-2-yl}-benzyl)-2-[2-({2-[2-(3,4,5,6,7-pentahydroxy-2-oxoheptyloxy)ethoxy]-ethylcarbamoyl}-methoxy)ethoxy]acetamide] | 0.3 mg/mouse
C[N+](C)(C)CCCC(=O)NCc1ccc(C2C(CCC(O)c3ccc(F)cc3)C(=O)N2c2ccc(F)cc2)cc1.O=C([O-])C(F)(F)F (stereo not drawn) [Example XV, [3-(4-{1-(4-Fluorophenyl)-3-[3-(4-fluorophenyl)-3-hydroxypropyl]-4-oxoazetidin-2-yl}benzylcarbamoyl)propyl]trimethylammonium trifluoroacetate] | 0.01 mg/mouse
C[N+](C)(C)CCCCCOc1ccc(C2C(CCC(O)c3ccc(F)cc3)C(=O)N2c2ccc(F)cc2)cc1.[Br-] (stereo not drawn) [XXIV, [5-(4-{1-(4-Fluorophenyl)-3-[3-(4-fluorophenyl)-3-hydroxypropyl]-4-oxoazetidin-2-yl}phenoxy)pentyl]trimethylammonium bromide] | 0.3 mg/mouse
C[N+](C)(C)CCCCC(NC(=O)OCC1c2ccccc2-c2ccccc21)C(=O)NCc1ccc(C2C(CCC(O)c3ccc(F)cc3)C(=O)N2c2ccc(F)cc2)cc1.[Cl-] (stereo not drawn) [Example XXI] | 1.0 mg/mouse
COc1ccc(C2C(CCC(O)c3ccc(F)cc3)C(=O)N2c2ccc(CNC(=O)CCCCCCCCCCCNC(=O)C(O)C(O)C(O)C(O)CO)cc2)cc1 (stereo not drawn) [III, N-4-[3-[3-(4-Fluorophenyl)-3-hydroxypropyl]-2-(4-methoxyphenyl)-4-oxoazetidin-1-yl]benzyl-12-(2,3,4,5,6-pentahydroxyhexanoylamino)dodecanamide] | 0.003 mg/mouse
COc1ccc(C2C(CCC(O)c3ccc(F)cc3)C(=O)N2c2ccc(CNC(=O)CCCCN(Cc3ccccc3)CC(O)C(O)C(O)C(O)CO)cc2)cc1.O=C(O)C(F)(F)F (stereo not drawn) [Example XVIII, Benzyl-(4-{4-[3-[3-(4-fluorophenyl)-3-hydroxypropyl]-2-(4-methoxyphenyl)-4-oxoazetidin-1-yl]benzylcarbamoyl}butyl)-(2,3,4,5,6-pentahydroxyhexyl)ammonium trifluoroacetate] | 1.0 mg/mouse
CN(CCCCOc1ccc(C2C(CCC(O)c3ccc(F)cc3)C(=O)N2c2ccc(F)cc2)cc1)CC(O)C(O)C(O)C(O)CO (stereo not drawn) [XXV, 1-(4-Fluorophenyl)-3-[3-(4-fluorophenyl)-3-hydroxypropyl]-4-(4-{4-[methyl-(2,3,4,5,6-pentahydroxyhexyl)amino]butoxy}phenyl)azetidin-2-one] | 0.3 mg/mouse

system: not listed separately; assay: Bioabsorption, Caco cell model; format: in vitro ADME; details: human, Caco-2; Caco cell model; read-out: Apparent partition coefficient Papp (according to Lit. Hilgers)
Source text: (§1) The bioabsorption of the compounds of the formula I can be examined using the Caco cell model (A. R. Hilgers et al., Caco-2 cell monolayers as a model for drug transport across the intestinal mucosa, Pharm. Res. 1990, 7, 902).
(§2) Below is a bioabsorption measurement for a reference compound: […]

Compound | Papp
O=C1[C@H](CC[C@H](O)c2ccc(F)cc2)[C@@H](c2ccc(O)cc2)N1c1ccc(F)cc1 [Ezetimibe] | 4.88 ×10⁻⁶ cm/s

system: Caco-2 cell monolayers; assay: Bioabsorption, Caco cell model; format: in vitro ADME; details: estimated from Caco cell model
Source text: as §1, §2

Compound | Estimated human bioabsorption
O=C1[C@H](CC[C@H](O)c2ccc(F)cc2)[C@@H](c2ccc(O)cc2)N1c1ccc(F)cc1 [Ezetimibe] | 100%
